This is an account of results in US20130296425A1, “PROPHYLACTIC OR THERAPEUTIC AGENT FOR A PERIPHERAL NERVE DISORDER INDUCED BY ANTI-CANCER AGENTS” (NAGOYA INDUSTRIAL SCIENCE RESEARCH INSTITUTE, priority 2011, published 2013).

In assay [1] the test system is paclitaxel-induced peripheral nerve disorder rats. The assay is described as follows: Single intraperitoneal administration, hyperalgesia induced by paclitaxel (von Frey test). The conditions noted are these: Rattus norvegicus, ip, single i.p. dose 0.3 mg/kg, higher of the values after 1 hour and 5 hours, read-out: Recovery rate of 50% reaction threshold value (%). The format is in vivo. How it is done:
Male SD rats in six weeks age (one group comprised six rats) were used as experimental animals and the paclitaxel-induced peripheral nerve disorder rats were prepared in the same manner as in the above 1.[1](2). The test drug was administered intraperitoneally in a single dose so as to make it 0.3 mg/kg in any of the cases during the period of 18 to 25 days or 20 to 27 days after initiation of administration of paclitaxel.
A von Frey test was conducted in the same manner as in the above 1.[1](4) using the rats mentioned in the above (1) and each 50% reaction threshold value was measured. With regard to the higher 50% reaction threshold value between the 50% reaction threshold values after 1 hour and 5 hours from administration of a test drug, a recovery rate (%) of the 50% reaction threshold value was calculated.
Recovery rate (%) of 50% reaction threshold value={[(50% reaction threshold value after 1 hour or 5 hours from administration of test drug)−(50% reaction threshold value before administration of test drug)]÷[(Normal threshold value)−(50% reaction threshold value before administration of test drug)]}×100

Assay [2] has the same test system. The assay is described as follows: Repeated intraperitoneal administration, hyperalgesia by paclitaxel (von Frey test). The format is in vivo, rat. Here is the method: (§1) With regard to male SD rats of six weeks age used as the experimental animals, their 50% reaction threshold values to the mechanical stimulus (the measuring method will be mentioned later) and body weights were measured and then the following seven groups each comprising eight rats was organized. • Normal control group • Onset control group • Prophylactic administration group with 0.25 mg/kg/day of a test drug • Prophylactic administration group with 0.50 mg/kg/day of a test drug • Therapeutic administration group with 0.25 mg/kg/day of a test drug • Therapeutic administration group with 0.50 mg/kg/day of a test drug • Therapeutic administration group with 30 mg/kg/day of gabapentin (positive control)
Taxol (registered trademark) injection 30 mg (manufactured by Bristol-Myers Squibb) containing 6 mg/mL of paclitaxel was used. To the rats of each of the above groups except the normal control group was intraperitoneally administered paclitaxel diluted to 2 mg/mL with saline in a dose of 2 mg/kg four times every other day whereupon the paclitaxel-induced peripheral nerve disorder rats were prepared. To the normal control group, an equivalent mixture of ethanol and Cremophor EL (registered trademark; manufactured by Sigma; a solvent for Taxisol (registered trademark) injection) diluted with saline to an extent of 3-fold was administered similarly.
To prophylactic administration groups of a test drug, the compound 4 in a dose of 0.25 mg/kg/day or 0.50 mg/kg/day was repeatedly administered intraperitoneally since immediately after initiation of administration of paclitaxel until 13 days thereafter. Meanwhile, to therapeutic administration groups of a test drug and to a therapeutic administration group of gabapentin, the compound 4 in a dose of 0.25 mg/kg/day or 0.50 mg/kg/day or gabapentin in a dose of 30 mg/kg/day, respectively was repeatedly administered intraperitoneally during the period of from 14 days to 42 days after initiation of the administration of paclitaxel.
The seven groups of rats of the above (1) were placed in a transparent acrylic cage with a wire-meshed floor and habituated for about three minutes and the 50% reaction threshold values to the mechanical stimulus of right hind limb were measured after 3, 7, 14, 21, 28, 35 and 42 days from initiation of the administration of paclitaxel. Incidentally, during the period of administration of a test drug, its values were measured after 24 hours from the last administration of a test drug.
The measurement was conducted using von Frey filaments (manufactured by North Coast Medical Inc.) in accordance with the methods of Chaplan, et al. (Journal of Neuroscience Methods, vol. 53, no. 1, pages 55 to 63, 1994) and Dixon, et al. (Annual Review of Pharmacology and Toxicology, vol. 20, pages 441 to 462, 1980). […] The case where the rat escaped at the instance of removing the filament was also called positive. When the positive reaction was noted, stimulus was conducted similarly using a filament of one rank weaker while, when no reaction was noted, stimulus was conducted similarly using a filament of one rank stronger and the point when the reaction changed from negative to positive or from positive to negative was called the first two reactions. […] A 50% reaction threshold value to the mechanical stimulus was measured using the reaction to the six stimuli in total and then (mean value) ± (standard error) for each group was calculated. […]

Assay [3] concerns oxaliplatin-induced peripheral nerve disorder rats. The assay is described as follows: Repeated intraperitoneal administration, hyperalgesia by oxaliplatin (von Frey test). The format is in vivo, rat. Here is the method: as §1, with “to” for “to the”, “stimulus” for “stimulus (the measuring method will be mentioned later)”, “comprising 8” for “comprising eight”, “with 10” for “with 30”, “of pregabalin” for “of gabapentin”
To the rats of each of the above groups except the normal control group was intraperitoneally administered an oxaliplatin solution dissolved in glucose injection to an extent of 4 mg/mL in a dose of 4 mg/kg twice weekly for four weeks being eight times in total whereupon the oxaliplatin-induced peripheral nerve disorder rats were prepared. To the normal control group, glucose injection was administered similarly.
To prophylactic administration groups of a test drug, a test drug (the compound 4) in a dose of 0.25 mg/kg/day or 0.50 mg/kg/day was repeatedly administered intraperitoneally since immediately after initiation of administration of oxaliplatin until 27 days thereafter. Meanwhile, to a therapeutic administration group of a test drug and to a therapeutic administration group of pregabalin, a test drug (the compound 4) in a dose of 0.25 mg/kg/day or 0.50 mg/kg/day was repeatedly administered intraperitoneally during the period of from 14 days to 27 days after initiation of the administration of oxaliplatin and, pregabalin was administered orally in repeated dose of 10 mg/kg/day during the same period.
A von Frey test was conducted in the same manner as in the above 1.[1](4) using the seven groups of rats mentioned in the above (1). 50% reaction threshold values in each group were measured before initiating the administration of oxaliplatin and after 7, 14, 21, 28, 33 and 40 days from the initiation of the administration. Mean value ± standard error for each group was calculated and the test for significant difference was conducted in the same manner as in the above 1.[1](4).

For the compound `CCCCCCC/C=C/C(=O)OCC` [Compound 4, Trans-2-decenoic acid ethyl ester], the inhibition in vivo at 0.3 mg/kg in assay [1] amounted to 48.5%. For the same compound, the “effect of suppressing the hyperalgesia after completion of the repeated administration” value in assay [2] (paclitaxel model, repeated i.p. 0.25 or 0.50 mg/kg/day) was “still continued”; in assay [3] (oxaliplatin model, repeated i.p. 0.25 or 0.50 mg/kg/day), “still continued”. For the same compound, the “50% reaction threshold values to the mechanical stimulus vs onset control group” value in assay [2] (prophylactic i.p. 0.5 mg/kg/day until 13 days, from 14 days to 28 days after initiation of paclitaxel, male SD rats) was “significantly high”; in assay [2] (therapeutic i.p. 0.25 mg/kg/day (days 14-42), from 21 days to 35 days after paclitaxel), “significantly high”; in assay [2] (therapeutic i.p. 0.5 mg/kg/day (days 14-42), after 28 days from paclitaxel), “significantly high”; in assay [3] (prophylactic i.p. 0.25 mg/kg/day until 27 days, from 21 days to 28 days after oxaliplatin) it was “significantly high”; in assay [3] (prophylactic i.p. 0.5 mg/kg/day until 27 days, from 21 days to 33 days after oxaliplatin), “significantly high”; in assay [3] (therapeutic i.p. 0.25 mg/kg/day (days 14-27), after 28 days from oxaliplatin), “significantly high”. In addition, the “50% reaction threshold values to the mechanical stimulus vs onset control group” value in assay [3] (therapeutic i.p. 0.5 mg/kg/day (days 14-27), from 21 days to 33 days after oxaliplatin) is “significantly high”.
